pKi: −log10 of the molar value.
Biological target: T1, recombinant human GSK3β (Homo sapiens, UniProt P49841)
T1 construct: purchased Dundee University, UK
Experiment: GSK3β Scintillation Proximity Assay (ATP competition)
Assay type: biochemical
Settings: recombinant human GSK3β SPA; 1 μM ATP, 1 μM biotinylated peptide substrate; Ki calculated with Km of ATP 20 μM
Procedure: Determination of ATP Competition in Scintillation Proximity GSK3β Assay.
GSK3β Scintillation Proximity Assay.
The competition experiments were carried out in duplicate with 10 different concentrations of the inhibitors in clear-bottom microtiter plates (Wallac, Finland). A biotinylated peptide substrate, Biotin-Ala-Ala-Glu-Glu-Leu-Asp-Ser-Arg-Ala-Gly-Ser(PO3H2)-Pro-Gln-Leu (AstraZeneca, Lund), was added at a final concentration of 1 μM in an assay buffer containing 1 mU recombinant human GSK3β (Dundee University, UK), 12 mM morpholinepropanesulfonic acid (MOPS), pH 7.0, 0.3 mM EDTA, 0.01% β-mercaptoethanol, 0.004% Brij 35 (a […] detergent), 0.5% glycerol and 0.5 μg BSA/25 μl. The reaction was initiated by the addition of 0.04 μCi [γ-^33P]ATP (Amersham, UK) and unlabelled ATP at a final concentration of 1 μM and assay volume of 25 μl. After incubation for 20 minutes at room temperature, each reaction was terminated by the addition of 25 μl stop solution containing 5 mM EDTA, 50 μM ATP, 0.1% Triton X-100 and 0.25 mg streptavidin coated Scintillation Proximity Assay (SPA) beads (Amersham, UK). After 6 hours the radioactivity was determined in a liquid scintillation counter (1450 MicroBeta Trilux, Wallac). The inhibition curves were analysed by non-linear regression using GraphPad Prism, USA. The Km value of ATP for GSK3β, used to calculate the inhibition constants (Ki) of the various compounds, was 20 μM.

T1 sequence (P49841 whole entry): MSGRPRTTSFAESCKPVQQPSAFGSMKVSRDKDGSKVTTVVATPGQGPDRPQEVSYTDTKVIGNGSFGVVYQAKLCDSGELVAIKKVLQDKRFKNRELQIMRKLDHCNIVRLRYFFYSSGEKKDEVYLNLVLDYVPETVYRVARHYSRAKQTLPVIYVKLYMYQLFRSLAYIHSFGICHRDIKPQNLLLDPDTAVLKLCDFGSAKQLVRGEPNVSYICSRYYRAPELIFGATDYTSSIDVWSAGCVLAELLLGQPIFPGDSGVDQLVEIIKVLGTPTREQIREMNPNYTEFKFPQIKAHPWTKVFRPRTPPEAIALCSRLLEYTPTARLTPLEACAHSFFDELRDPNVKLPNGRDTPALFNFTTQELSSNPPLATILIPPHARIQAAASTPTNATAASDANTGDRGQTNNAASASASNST

SMILES	pKi
Cc1ncc(-c2nc(NC3CCOCC3)ncc2F)n1C1CCOCC1 [Example 34, 5-Fluoro-4-[2-methyl-1-(tetrahydro-2H-pyran-4-yl)-1H-imidazol-5-yl]-N-(tetrahydro-2H-pyran-4-yl)pyrimidin-2-amine]	7.06
CC(=O)N1CCC(Nc2ncc(F)c(-c3cnc(C)n3C3CCOCC3)n2)CC1 [Example 35, N-(1-Acetylpiperidin-4-yl)-5-fluoro-4-[2-methyl-1-(tetrahydro-2H-pyran-4-yl)-1H-imidazol-5-yl]pyrimidin-2-amine]	6.92
Cc1ncc(-c2nc(NC3CCCCC3)ncc2F)n1C1CCOCC1 [Example 36, N-Cyclohexyl-5-fluoro-4-[2-methyl-1-(tetrahydro-2H-pyran-4-yl)-1H-imidazol-5-yl]pyrimidin-2-amine]	7.80
Cc1ncc(-c2nc(NC3CCN(Cc4ccccc4)CC3)ncc2F)n1C1CCOCC1 [Example 37, N-(1-Benzylpiperidin-4-yl)-5-fluoro-4-[2-methyl-1-(tetrahydro-2H-pyran-4-yl)-1H-imidazol-5-yl]pyrimidin-2-amine]	6.85
Cc1ncc(-c2nc(NC3CCN(C(=O)c4ccccc4)CC3)ncc2F)n1C1CCOCC1 [Example 38, N-(1-Benzoylpiperidin-4-yl)-5-fluoro-4-[2-methyl-1-(tetrahydro-2H-pyran-4-yl)-1H-imidazol-5-yl]pyrimidin-2-amine]	7.24
Cc1ncc(-c2nc(NC3CCN(C(=O)Cc4ccccc4)CC3)ncc2F)n1C1CCOCC1 [Example 39, 5-Fluoro-4-[2-methyl-1-(tetrahydro-2H-pyran-4-yl)-1H-imidazol-5-yl]-N-[1-(phenylacetyl)piperidin-4-yl]pyrimidin-2-amine]	7.44
Cc1ncc(-c2nc(NC3CCN(C(=O)OCc4ccccc4)CC3)ncc2F)n1C1CCOCC1 [Example 40, Benzyl 4-({5-fluoro-4-[2-methyl-1-(tetrahydro-2H-pyran-4-yl)-1H-imidazol-5-yl]pyrimidin-2-yl}amino)piperidine-1-carboxylate]	7.51

The next lines start with the values.

pKi	SMILES
6.92	Cc1ncc(-c2nc(NC3CCN(S(C)(=O)=O)CC3)ncc2F)n1C1CCOCC1 [Example 41, 5-Fluoro-N-[1-(methylsulfonyl)piperidin-4-yl]-4-[2-methyl-1-(tetrahydro-2H-pyran-4-yl)-1H-imidazol-5-yl]pyrimidin-2-amine]
7.04	Cc1ncc(-c2nc(NC3CCN(C(=O)C(F)(F)F)CC3)ncc2F)n1C1CCOCC1 [Example 42, 5-Fluoro-4-[2-methyl-1-(tetrahydro-2H-pyran-4-yl)-1H-imidazol-5-yl]-N-[1-(trifluoroacetyl)piperidin-4-yl]pyrimidin-2-amine]
7.28	Cc1ncc(-c2nc(NC3CCN(S(=O)(=O)c4ccccc4)CC3)ncc2F)n1C1CCOCC1 [Example 43, 5-Fluoro-4-[2-methyl-1-(tetrahydro-2H-pyran-4-yl)-1H-imidazol-5-yl]-N-[1-(phenylsulfonyl)piperidin-4-yl]pyrimidin-2-amine]
7.10	Cc1ncc(-c2nc(NC3CCN(S(=O)(=O)Cc4ccccc4)CC3)ncc2F)n1C1CCOCC1 [Example 44, N-[1-(Benzylsulfonyl)piperidin-4-yl]-5-fluoro-4-[2-methyl-1-(tetrahydro-2H-pyran-4-yl)-1H-imidazol-5-yl]pyrimidin-2-amine]

From US20080188503A1, “New Compounds II” (AstraZenaca AB, priority 2006, published 2008)
